{
  "source": "patent US20040072146A1",
  "about": "“Mechanism of mitochondrial membrane permeabilization by HIV-1 Vpr, mimetics of Vpr and methods of screening active molecules having the ability to alter and/or prevent and/or mimic the interaction of Vpr with ANT” (priority 2000, published 2004)",
  "molecules": {"B1": {"name": "adenine nucleotide translocator (ANT), native purified protein, Q05962 2-298 (protein)", "chain": "GDQALSFLKDFLAGGIAAAVSKTAVAPIERVKLLLQVQHASKQISAEKQYKGIIDCVVRIPKEQGFLSFWRGNLANVIRYFPTQALNFAFKDKYKQIFLGGVDRHKQFWRYFAGNLASGGAAGATSLCFVYPLDFARTRLAADVGKGSSQREFNGLGDCLTKIFKSDGLKGLYQGFSVSVQGIIIYRAAYFGVYDTAKGMLPDPKNVHIIVSWMIAQSVTAVAGLVSYPFDTVRRRMMMQSGRKGADIMYTGTVDCWRKIAKDEGRKAFFKGAWSNVLRGMGGAFVLVLYDEIKKYV"}},
  "key": {"biotinylated Vpr52-96": {"molecular_target": "biotinylated Vpr52-96 (Human immunodeficiency virus type 1 group M subtype B, UniProt P69726)", "assay_type": "binding, HIV-1"}, "ANT-proteoliposomes": {"molecular_target": "T1, ANT-proteoliposomes (Rattus norvegicus, UniProt Q05962)", "T1 construct": "ANT is purified from rat heart and reconstituted in liposomes; from tissue; host or cells: rat heart (ANT)", "T1 sequence (Q05962 1-298)": "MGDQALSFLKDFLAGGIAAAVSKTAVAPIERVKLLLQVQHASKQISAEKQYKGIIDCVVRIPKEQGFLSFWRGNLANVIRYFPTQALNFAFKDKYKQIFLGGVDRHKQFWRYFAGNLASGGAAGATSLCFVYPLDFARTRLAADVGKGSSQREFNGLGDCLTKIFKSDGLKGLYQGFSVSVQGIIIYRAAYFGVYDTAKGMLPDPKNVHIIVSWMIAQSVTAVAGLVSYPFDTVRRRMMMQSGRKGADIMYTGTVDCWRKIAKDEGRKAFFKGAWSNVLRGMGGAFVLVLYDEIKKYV", "experiment": "FITC-labeled Vpr52-96 binding onto ANT-liposomes and plain liposomes", "conditions": "BA 50 μM; Bcl-2 800 nM", "method": "A. Dose-response curve of FITC-labeled Vpr52-96 binding onto ANT-liposomes and plain liposomes.\nB. Binding of FITC-Vpr52-96 (2 μM) to plain liposomes, ANT-proteoliposomes, in the presence or absence of BA (50 μM)."}, "isolated mitochondria": {"system": "isolated mitochondria", "experiment": "Electron microscopy of isolated mitochondria (matrix swelling)", "assay_type": "biochemical", "conditions": "pre-incubation of mitochondria", "source_text": "C. Ultrastructural effects of Vpr on isolated mitochondria."}, "purified mitochondria [1]": {"system": "purified mitochondria", "experiment": "ΔΨm dissipation in purified mitochondria (JC-1 flow cytometry)", "assay_type": "biochemical", "conditions": "5 μM CsA, 50 μM BA, 0.8 μM Bcl-2, 2 μM PA10", "method": "Numbers indicate the percentage of JC-1^high and JC-1^low mitochondria among ˜10^4 events.\nE. Quantitation of the frequency of JC-1^low mitochondria (X±SD, n=5) after incubation with different Vpr-derived peptides."}, "purified mitochondria [2]": {"system": "purified mitochondria", "experiment": "FITC-Vpr52-96 binding to purified mitochondria", "conditions": "pre-incubation of the organelles", "method": "Mitochondria were left unstained (insert in Co.) or exposed to the ΔΨm-insensitive mitochondrial dye MitoTracker® Green (75 nM), alone (MTG) or with 0.5 μM of FITC-Vpr52-96; green fluorescence), in combination with the ΔΨm-sensitive mitochondrial dye MitoTracker® Red (CMXRos; red Fluorescence) followed by cytofluorometric two-color analysis. Numbers indicate the percentage of mitochondria in each quadrant.\nMitochondria were incubated with the indicated inhibitors, and then exposed for 30 min at RT with 5 μM biotinylated Vpr52-96. Mitochondria were lysed either after incubation with biotinylated Vpr52-96 (upper panel) or lysed before (lower panel) with Tris/HCl as described in materials and methods. Biotinylated Vpr52-96 complexed with its mitochondrial ligands was retained on avidin-agarose and subjected to immunoblot detection of ANT."}, "purified mitochondria [3]": {"system": "purified mitochondria", "experiment": "Inner versus outer mitochondrial membrane permeabilization (NADH oxidation, cytochrome c oxidation)", "assay_type": "biochemical", "conditions": "for prevention of Vpr-mediated inner MMP to NADH: preincubation 10 min, Bcl-2 0.8 μM, BA 10 μM", "method": "A. Respirometry performed after addition of NADH and Vpr52-96 (1 μM). Numbers along the traces are nmol of O2 consumed min^−1 mg^−1 protein.\nB. Kinetics of Vpr52-96 induced inner membrane permeabilization to NADH and outer membrane permeabilization to reduced cytochrome c. Oxygen consumption was determined in the presence of 2 mM NADH (full squares) as in A (traces C-D) and cytochrome c (15 μM) oxidation (open circles) was spectrofluorometrically measured, as described Rustin et al., 1994). The 100% value of cytochrome c oxidation was determined by addition of 2.5 mM laurylmaltoside.\nOxygen consumption of purified mitochondria was measured as in FIG. 5 after addition of succinate+CCCP or NADH, as indicated."}, "biotin-Vpr52-96 (HIV-1)": {"molecular_target": "biotin-Vpr52-96 (HIV-1) (UniProt P12520)", "experiment": "SPR, Langmuir isotherm, peptide on biotinylated Vpr52-96"}, "ANT": {"molecular_target": "T2, ANT (Rattus norvegicus, UniProt Q05962)", "T2 construct": "from tissue", "T2 sequence (Q05962 whole entry, looked up)": "T1 sequence (Q05962 1-298)", "experiment": "Single channel recordings in planar lipid bilayers", "assay_type": "biochemical", "method": "FIG. 3 presents electrophysiological properties of Vpr52-96 and ANT in planar lipid bilayers. Current fluctuations of Vpr52-96 (80 nM, +150 mV), Vpr52-96(0.4 nM, +100 mV), ANT (1 nM, +110 mV) and Vpr52-96+ANT (0.4:1 nM, +115 mV) and associated histograms (right) of conductance levels are shown.\nCurrent fluctuations of Vpr52-96 (80 nM, +150 mV), Vpr52-96 (0.4 nM, +100 mV), ANT (1 nM, +110 mV) and Vpr52-96+ANT (0.4:1 nM, 115 mV) after incorporation into synthetic membranes. Single channel recordings were performed using the “Tip-Dip” technique. The recordings shown are representative for at least three independent determinations.\nB. Statistical analysis of conductances obtained in A. Results were expressed as current distributions at different voltages. Conductances (γ; in picosiemens, pS) are calculated by division of current by voltage."}, "COS cells": {"system": "COS cells", "experiment": "ΔΨm dissipation in intact microinjected cells (JC-1)", "assay_type": "cell-based", "source_text": "A. Vpr52-96-induced ΔΨm dissipation induced in intact cells."}, "purified mitochondria [4]": {"system": "purified mitochondria", "experiment": "Respirometry of purified mitochondria, respiratory control", "assay_type": "biochemical", "conditions": "for effect on respiratory control (RC): 1 μM peptide, 10 min", "method": "A. Oxygen consumption curves after addition of the indicated agents. Trace a: control mitochondria (no pretreatment). Trace b: mitochondria pretreated for 10 min with 1 μM Vpr52-96. Numbers along the traces are nmol of O2 consumed min^−1 mg^31 1 protein.\nB. Respiratory control (RC) values calculated by dividing oxygen consumption in the presence of CCCP by that measured with oligomycin (determined as in A), 10 min after addition of 1 μM of Vpr-derived peptides (mean values of 3 determinations)."}, "[5]": {"molecular_target": "biotin-Vpr52-96 (HIV-1), P12520", "experiment": "SPR, immobilised biotin-Vpr52-96, detergent-solubilized ANT as analyte"}, "[6]": {"molecular_target": "T3, adenine nucleotide translocator (ANT), native purified protein (rat), Q05962", "T3 chain": "B1 chain", "experiment": "cell-based or functional assay"}, "[7]": {"molecular_target": "T4, adenine nucleotide translocator (ANT), native purified protein (rat, UniProt Q05962 2-298)", "T4 construct": "mature; also called adenine nucleotide translocase; ADP/ATP carrier", "T4 sequence": "B1 chain", "experiment": "not stated (summary paragraph)"}},
  "note": "Entries after “also recorded” stand apart in the source; their conditions may differ. Where a SMILES comes first, the peptide text is derived from it.",
  "data": [
    {"molecule": "C[C@H](NC(=O)[C@H](Cc1ccccc1)NC(=O)[C@H](Cc1ccc(O)cc1)NC(=O)[C@H](CCCNC(=N)N)NC(=O)[C@H](Cc1c[nH]c2ccccc12)NC(=O)[C@H](Cc1ccccc1)NC(=O)[C@H](CCC(N)=O)NC(=O)[C@@H](NC(=O)[C@H](CCCNC(=N)N)NC(=O)[C@H](CCCCN)NC(=O)[C@@H](N)CC(=O)O)[C@@H](C)O)C(=O)NCC(=O)N[C@@H](CC(N)=O)C(=O)O", "note": "[ANT104-116] (H-DKRTQFWRYFAGN-OH; N-terminus and C-terminus assumed)", "values": [
      {"measurement": "Kd", "setting": "biotinylated Vpr52-96; read-out: calculated KD of binding of ANT104-116 to biotinylated Vpr52-96, Langmuir isotherm", "result": 35, "unit": "µM"}
    ]},
    {"molecule": "CO[C@H](C/C=C\\C=C\\CC/C=C/C[C@H](C)/C=C/C(=C\\C(=O)O)CC(=O)O)/C(C)=C\\C=C(/C)C(=O)O", "note": "[bongkrekic acid, reference compound]", "values": [
      {"measurement": "effect on Vpr52-96 binding to ANT liposomes (membrane-associated ANT)", "setting": "ANT-proteoliposomes", "result": "inhibited"},
      {"measurement": "inhibition of Vpr-induced matrix swelling", "setting": "isolated mitochondria", "result": "inhibited"},
      {"measurement": "inhibition of Vpr-induced ΔΨm loss in purified mitochondria", "setting": "purified mitochondria [1]", "result": "inhibited"},
      {"measurement": "effect on binding of Vpr52-96 to purified mitochondria", "setting": "purified mitochondria [2]", "result": "partially reduced"},
      {"measurement": "prevention of Vpr-mediated inner MMP to NADH", "setting": "purified mitochondria [3]", "result": "prevented the Vpr-mediated inner MMP to NADH"}
    ]},
    {"molecule": "C=C(C)[C@H]1Cc2c(ccc3c2O[C@@H]2COc4cc(OC)c(OC)cc4[C@@H]2C3=O)O1", "note": "[rotenone, reference compound]", "values": [
      {"measurement": "sensitivity of Vpr-stimulated, NADH-dependent O2 consumption", "setting": "purified mitochondria [3]", "result": "fully sensitive to rotenone"}
    ]},
    {"molecule": "ANT-2-derived peptide ANT104-116", "values": [
      {"measurement": "Kd", "setting": "biotin-Vpr52-96 (HIV-1)", "result": 35, "unit": "µM"}
    ]},
    {"molecule": "Bax: pro-apoptotic Bcl-2 family protein added to Vpr52-96-ANT channels", "values": [
      {"measurement": "mean conductance of Vpr52-96-ANT channels with Bax", "setting": "ANT; Vpr52-96+ANT+Bax 0.4:1:0.3 nM, +75 mV", "result": "245±2", "unit": "S"}
    ]},
    {"molecule": "Bcl-2: recombinant human Bcl-2 protein", "values": [
      {"measurement": "effect on formation of Vpr52-96 induced channels in ANT-containing lipid bilayers", "setting": "ANT; Vpr52-96+ANT+Bcl-2 0.4:1:1 nM", "result": "abolished the formation of Vpr52-96 induced channels in ANT-containing lipid bilayers"},
      {"measurement": "effect on Vpr52-96 binding to ANT liposomes (membrane-associated ANT)", "setting": "ANT-proteoliposomes", "result": "reduced Vpr52-96 binding"},
      {"measurement": "inhibition of Vpr-induced matrix swelling", "setting": "isolated mitochondria", "result": "inhibited; also recorded: strongly reduced"},
      {"measurement": "inhibition of Vpr-induced ΔΨm loss in purified mitochondria", "setting": "purified mitochondria [1]", "result": "inhibited; also recorded: strongly reduced"},
      {"measurement": "prevention of Vpr effects on intact cells", "setting": "COS cells; microinjected, Bcl-2 10 μM, PA10 2 μM", "result": "prevented"},
      {"measurement": "binding to Vpr52-96", "setting": "biotinylated Vpr52-96", "result": "did not bind Vpr52-96"},
      {"measurement": "effect on binding of Vpr52-96 to purified mitochondria", "setting": "purified mitochondria [2]", "result": "failed to impair the binding of Vpr52-96 to purified mitochondria"},
      {"measurement": "prevention of Vpr-mediated inner MMP to NADH", "setting": "purified mitochondria [3]", "result": "prevented the Vpr-mediated inner MMP to NADH"}
    ]},
    {"molecule": "HFRIGCRHSRIG [Vpr71-82]", "values": [
      {"measurement": "effect on respiratory control (RC)", "setting": "purified mitochondria [4]", "result": "also reduced the RC values"}
    ]},
    {"molecule": "Vpr: proapoptotic 96 amino acid HIV-1 regulatory protein, full length Vpr1-96 (DTWAGVEAIIRILQQLLFIHFRIGCRHSRIGVTRQRRARNGASRS)", "values": [
      {"measurement": "effect on respiratory control (RC)", "setting": "purified mitochondria [4]", "result": "also reduced the RC values"},
      {"measurement": "oxidation rate accompanying loss of RC", "setting": "purified mitochondria [4]; short-term incubation", "result": "not associated with a significant decrease of the oxidation rate"},
      {"measurement": "ΔΨm loss in intact cells", "setting": "COS cells; extracellular addition", "result": "induced a rapid ΔΨm loss, before nuclear condensation occurred"}
    ]},
    {"molecule": "B1", "values": [
      {"measurement": "Kd", "setting": "[5]", "result": 0.0097, "unit": "µM"}
    ]},
    {"molecule": "DTWAGVEAIIRILQQLLFIHFRIGCRHSRIGVTRQRRARNGASRS (modifications not checked)", "note": "[Vpr52-96, P12520 52-96]", "values": [
      {"measurement": "conductance of Vpr52-96-ANT channels in the presence of Bax", "setting": "[6]", "result": 245, "unit": "pS"},
      {"measurement": "conductance of channels formed by ANT and Vpr52-96 in planar lipid bilayers", "setting": "[6]", "result": 190, "unit": "pS"}
    ]},
    {"molecule": "DTWAGVEAIIRILQQLLFIHFRIGCRHSRIGVTRQRRARNGASRS (other, also called viral protein R)", "note": "[HIV-1 Vpr]", "values": [
      {"measurement": "Kd", "setting": "[7]", "result": 0.001, "unit": "µM"}
    ]}
  ]
}
